The record followed here is ChEMBL document CHEMBL4261596, “Growth inhibition of human ovarian carcinoma by a novel AvidinOX-anchored biotinylated camptothecin derivative” (Bioorg Med Chem Lett, 2018).

Calls of active or inactive are those of the source. The rule behind the calls is not given here.

For one data set, the system named is A-431. The data set can be described thus: Antiproliferative activity against human A431 cells. The data set is classed as functional, cell-based.
The test system of data set [1] is SK-OV-3. In words: Antitumor activity against human SKOV3 cells xenografted in intratumorally dosed Nu/Nu mouse assessed as inhibition of tumor volume administered as single dose and monitored for 2 weeks starting from day 18 post tumor injection and measured after 32 days post dose. Format: functional. (In general: Xenograft models place foreign cells or tissue in a host animal.)

Data set [2] relates to Mus musculus. The data set can be described thus: Toxicity in Nu/Nu intratumorally dosed mouse xenografted with human […] cells assessed as effect on body weight administered as single dose starting from day 18 post tumor injection and measured for 50 days post dose. Format: organism-based. Particulars: in vivo, other, 1200 h.
Data set [3] addresses Streptavidin (Streptomyces avidinii) (UniProt P22629). In words: Binding affinity to Streptomyces avidinii streptavidin assessed as reduction in biotinylated-alkaline phosphatase (unknown origin) binding at 1 to 1000 uM by ELISA. (In general: In an ELISA, binding on a coated surface is turned into a signal by an enzyme label.)
Data set [4] relates to Mus musculus. In words: Toxicity in Nu/Nu intratumorally dosed mouse xenografted with human […] cells assessed as effect on body weight administered as single dose starting from day 18 post tumor injection and measured for 50 days post dose using avidinOX conjugated compound. Format: organism-based. Particulars: in vivo, other, 1200 h.
For data set [5], the system named is SK-OV-3. The data set can be described thus: Antitumor activity against human SKOV3 cells xenografted in intratumorally dosed Nu/Nu mouse assessed as inhibition of tumor volume administered as single dose and monitored for 2 weeks starting from day 18 post tumor injection and measured after 32 days post dose using avidinOX conjugated compound. The data set is classed as functional.

Chain of Streptavidin (Streptomyces avidinii) (P22629 whole entry): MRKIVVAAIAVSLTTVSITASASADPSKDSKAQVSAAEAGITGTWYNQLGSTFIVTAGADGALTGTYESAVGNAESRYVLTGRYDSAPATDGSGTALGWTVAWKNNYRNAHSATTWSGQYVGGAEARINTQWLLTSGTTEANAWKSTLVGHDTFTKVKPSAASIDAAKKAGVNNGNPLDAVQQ

As usually defined, the IC50 is the concentration needed to halve the response being measured. For orientation: TGI means the reduction of tumour growth relative to the control group. For `CC[C@@]1(OC(=O)OCCSSCCNC(=O)CCCC[C@@H]2SC[C@@H]3NC(=O)N[C@@H]32)C(=O)OCc2c1cc1n(c2=O)Cc2c-1nc1ccccc1c2/C=N/OC(C)(C)C`, the IC50 with A-431 is 9.2 nM. Further, the TGI was determined as 48% in the data set with SK-OV-3 [1] and 68% in the data set with SK-OV-3 [5]. Also, the Activity result with Mus musculus [2] and in the data set on Mus musculus [4] was “Non-Toxic” in each case. Moreover, in data set [3], the result was Active.
